Assay results: PubChem BioAssay AID1259411 (Chemical Carcinogenesis Research Information System (CCRIS), 2018)
Active and inactive are the calls of the source. The rule behind the calls is not given here.

System: rodent carcinogenicity bioassays, tumor incidence
Experiment: CCRIS carcinogenicity studies
Conditions: Dose: 0, Dose: 0
How it was run: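 Archive of carcinogenicity, mutagenicity, tumor promotion and tumor inhibition results drawn from journals, NCI reports and other sources, expert-reviewed; covers 1985-2011 and is no longer updated.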

c1ccccc1
carcinogen call (Species: Mouse, Strain/Sex: C57BL/6 (heterozygous Trp53-deficient)/Male, Route: Inhalation, 100, 300 ppm 6 hr/d, 5 d/wk for 26 wks, then no exposure for lifetime, 100, 300 ppm 6 hr/d, 5 d/wk for 26 wks, then no exposure for lifetime, Tumor Site: Type of Lesion: Blood: hematopoietic neoplasms (325, 83,100%). Lymphoid tissue: thymic lymphoma (4, 50, 25%)): active; positive (highest dose) | carcinogen call (Species: Mouse, Strain/Sex: C57BL/6 (homozygous Trp53-deficient)/Male, Route: Inhalation, 33, 100, 300 ppm 6 hr/d, 5 d/wk for 26 wks, then no exposure for lifetime, 33, 100, 300 ppm 6 hr/d, 5 d/wk for 26 wks, then no exposure for lifetime): inactive; negative | carcinogen call (Species: Mouse, Strain/Sex: C57BL/6 (wild type)/Male, Route: Inhalation, 33, 100, 300 ppm 6 hr/d, 5 d/wk for 26 wks, then no exposure for lifetime, 33, 100, 300 ppm 6 hr/d, 5 d/wk for 26 wks, then no exposure for lifetime, Tumor Site: Type of Lesion: Blood: Hematopoietic neoplasms (10, 21,16, 56%). Lymphoid tissue: Thymic lymphoma (0, 0,11, 28%)): active; positive (highest dose) | carcinogen call (Species: Mouse, Strain/Sex: C57BL/6 (wild type)/Male, Route: Inhalation, 100, 300 ppm 6 hr/d, 5 d/wk for 26 wks, then no exposure for lifetime, 100, 300 ppm 6 hr/d, 5 d/wk for 26 wks, then no exposure for lifetime, Tumor Site: Type of Lesion: Blood: hematopoietic neoplasms (8, 25,30%). Lymphoid tissue: thymic lymphoma (0,17, 0%)): inactive; negative | carcinogen call (Species: RAT, Strain/Sex: F344/FEMALE, Route: GAVAGE, 25, 50, 100 MG/KG IN CORN OIL 5 D/WK FOR 103 WK, 25, 50, 100 MG/KG IN CORN OIL 5 D/WK FOR 103 WK, Tumor Site: Type of Lesion: ORAL CAVITY: SQUAMOUS CELL PAPILLOMA OR CARCINOMA, EAR (ZYMBAL GLAND): CARCINOMA, ADENOMA OR CARCINOMA): active; positive | carcinogen call (Species: RAT, Strain/Sex: F344/MALE, Route: GAVAGE, 50, 100, 200 MG/KG IN CORN OIL 5 D/WK FOR 103 WK, 50, 100, 200 MG/KG IN CORN OIL 5 D/WK FOR 103 WK, Tumor Site: Type of Lesion: INTEGUMENTARY SYSTEM (SKIN): SQUAMOUS CELL PAPILLOMA, SQUAMOUS CELL CARCINOMA, ORAL CAVITY: SQUAMOUS CELL PAPILLOMA, SQU): active; positive | carcinogen call (Species: RAT, Strain/Sex: SPRAGUE-DAWLEY/FEMALE, Route: GAVAGE, 50, 250 MG/KG BW IN OLIVE OIL 1/D 4-5 D/WK FOR 52 WK (STUDY DURATION: LIFETIME), 50, 250 MG/KG BW IN OLIVE OIL 1/D 4-5 D/WK FOR 52 WK (STUDY DURATION: LIFETIME), Tumor Site: Type of Lesion: [BRAIN WAS ONLY SITE EVALUATED]): inactive; negative | carcinogen call (Species: RAT, Strain/Sex: SPRAGUE-DAWLEY/FEMALE, Route: GAVAGE, 50, 250 MG/KG BW, 1/D, 4-5 D/WK FOR 52 WK, 50, 250 MG/KG BW, 1/D, 4-5 D/WK FOR 52 WK, Tumor Site: Type of Lesion: ZYMBAL GLAND: CARCINOMA, MAMMARY GLAND: CARCINOMA): active; positive | carcinogen call (Species: RAT, Strain/Sex: SPRAGUE-DAWLEY/MALE,FEMALE, Route: GAVAGE, 500 MG/KG BW, 1/WK, Tumor Site: Type of Lesion: ORAL CAVITY: SQUAMOUS CELL CARCINOMA, ZYMBAL GLAND: CARCINOMA): active; positive | carcinogen call (Species: RAT, Strain/Sex: SPRAGUE-DAWLEY/MALE, Route: GAVAGE, 50, 250 MG/KG BW IN OLIVE OIL 1/D 4-5 D/WK FOR 52 WK (STUDY DURATION: LIFETIME), 50, 250 MG/KG BW IN OLIVE OIL 1/D 4-5 D/WK FOR 52 WK (STUDY DURATION: LIFETIME), Tumor Site: Type of Lesion: [BRAIN WAS ONLY SITE EVALUATED]): inactive; negative | carcinogen call (Species: RAT, Strain/Sex: SPRAGUE-DAWLEY/MALE, Route: GAVAGE, 50, 250 MG/KG BW, 1/D, 4-5 D/WK FOR 52 WK, 50, 250 MG/KG BW, 1/D, 4-5 D/WK FOR 52 WK, Tumor Site: Type of Lesion: HEMATOPOIETIC SYSTEM (LEUKEMIA)): active; positive | carcinogen call (Species: RAT, Strain/Sex: STRAIN-CD/FEMALE, Route: INHALATION, 200 PPM 4 HR/D 5 D/WK FOR 7 WK THEN 7 HR/D FOR 12 WK THEN 300 PPM 7 HR/D 5 D/WK FOR 85 WK (STUDY DURATION: LIFESPAN), Tumor Site: Type of Lesion: MAMMARY GLAND: ADENOCARCINOMA, ORAL CAVITY: CARCINOMA, ZYMBAL GLAND: CARCINOMA, Tumor Site: Type of Lesion: MAMMARY GLAND: ADENOCARCINOMA, ORAL CAVITY: CARCINOMA, ZYMBAL GLAND: CARCINOMA): active; positive | carcinogen call (Species: RAT, Strain/Sex: STRAIN-CD/FEMALE, Route: INHALATION, 200 PPM 4 HR/D FOR 7 WK THEN 7 HR/D FOR 12 WK THEN 300 PPM 7 HR/D 5 D/WK FOR 85 WK TO RATS ALSO EXPOSED IN UTERO (STU, Tumor Site: Type of Lesion: ZYMBAL GLAND: CARCINOMA, ORAL CAVITY: CARCINOMA, NASAL CAVITY: CARCINOMA, MAMMARY GLAND: ADENOCARCINOMA, LIVER: HEPATOMA, Tumor Site: Type of Lesion: ZYMBAL GLAND: CARCINOMA, ORAL CAVITY: CARCINOMA, NASAL CAVITY: CARCINOMA, MAMMARY GLAND: ADENOCARCINOMA, LIVER: HEPATOMA): active; positive | carcinogen call (Species: RAT, Strain/Sex: STRAIN-CD/FEMALE, Route: INTRAGASTRIC, 50, 250 MG/KG IN OLIVE OIL 1/D 4-5 D/WK FOR 52 WK (STUDY DURATION: LIFESPAN), 50, 250 MG/KG IN OLIVE OIL 1/D 4-5 D/WK FOR 52 WK (STUDY DURATION: LIFESPAN), Tumor Site: Type of Lesion: ZYMBAL GLAND: CARCINOMA): active; positive | carcinogen call (Species: RAT, Strain/Sex: STRAIN-CD/FEMALE, Route: INTRAGASTRIC, 500 MG/KG IN OLIVE OIL 1/D 4-5 D/WK FOR 104 WK (STUDY DURATION: 104 WK)): inactive; negative | carcinogen call (Species: RAT, Strain/Sex: STRAIN-CD/FEMALE, Route: INTRAGASTRIC, 500 MG/KG IN OLIVE OIL 1/D 4-5 D/WK FOR 104 WK (STUDY DURATION: LIFESPAN), Tumor Site: Type of Lesion: ZYMBAL GLAND: CARCINOMA, LIVER: ANGIOSARCOMA, ORAL CAVITY: CARCINOMA, HEMOLYMPHORETICULAR: TUMOR, Tumor Site: Type of Lesion: ZYMBAL GLAND: CARCINOMA, LIVER: ANGIOSARCOMA, ORAL CAVITY: CARCINOMA, HEMOLYMPHORETICULAR: TUMOR): active; positive | carcinogen call (Species: RAT, Strain/Sex: STRAIN-CD/MALE, Route: INHALATION, 200 PPM 4 HR/D 5 D/WK FOR 7 WK THEN 7 HR/D FOR 12 WK THEN 300 PPM 7 HR/D 5 D/WK FOR 85 WK TO RATS ALSO EXPOSED IN UTE, Tumor Site: Type of Lesion: ZYMBAL GLAND: CARCINOMA): active; positive | carcinogen call (Species: RAT, Strain/Sex: STRAIN-CD/MALE, Route: INTRAGASTRIC, 50, 250 MG/KG IN OLIVE OIL 1/D 4-5 D/WK FOR 52 WK (STUDY DURATION: LIFESPAN), 50, 250 MG/KG IN OLIVE OIL 1/D 4-5 D/WK FOR 52 WK (STUDY DURATION: LIFESPAN), Tumor Site: Type of Lesion: HEMOLYMPHORETICULAR SYSTEM: TUMOR): active; positive | carcinogen call (Species: RAT, Strain/Sex: STRAIN-CD/MALE, Route: INTRAGASTRIC, 500 MG/KG IN OLIVE OIL 1/D 4-5 D/WK FOR 104 WK (STUDY DURATION: 104 WK)): inactive; negative | carcinogen call (Species: RAT, Strain/Sex: STRAIN-CD/MALE, Route: INTRAGASTRIC, 500 MG/KG IN OLIVE OIL 1/D 4-5 D/WK FOR 104 WK (STUDY DURATION: LIFESPAN), Tumor Site: Type of Lesion: ZYMBAL GLAND: CARCINOMA, ORAL CAVITY: CARCINOMA, NASAL CAVITY: CARCINOMA, SKIN: CARCINOMA, Tumor Site: Type of Lesion: ZYMBAL GLAND: CARCINOMA, ORAL CAVITY: CARCINOMA, NASAL CAVITY: CARCINOMA, SKIN: CARCINOMA): active; positive | carcinogen call (Species: RAT, Strain/Sex: WISTAR/FEMALE, Route: GAVAGE, 500 MG/KG IN OLIVE OIL 1/D FOR 4 TO 5 D/WK FOR 104 WK (STUDY DURATION: LIFETIME), Tumor Site: Type of Lesion: ZYMBAL GLAND: CARCINOMA, ORAL CAVITY: CARCINOMA, NASAL CAVITY: CARCINOMA, Tumor Site: Type of Lesion: ZYMBAL GLAND: CARCINOMA, ORAL CAVITY: CARCINOMA, NASAL CAVITY: CARCINOMA): active; positive | carcinogen call (Species: RAT, Strain/Sex: WISTAR/FEMALE, Route: INTRAGASTRIC, 500 MG/KG BW IN OLIVE OIL 1/D 4-5 D/WK FOR 104 WK (STUDY DURATION: LIFESPAN), Tumor Site: Type of Lesion: ZYMBAL GLAND: CARCINOMA, MAMMARY GLAND: ADENOCARCINOMA, HEMOLYMPHORETICULAR SYSTEM: TUMOR, Tumor Site: Type of Lesion: ZYMBAL GLAND: CARCINOMA, MAMMARY GLAND: ADENOCARCINOMA, HEMOLYMPHORETICULAR SYSTEM: TUMOR): active; positive | carcinogen call (Species: RAT, Strain/Sex: WISTAR/MALE, Route: GAVAGE, 500 MG/KG IN OLIVE OIL 1/D FOR 4 TO 5 D/WK FOR 104 WK (STUDY DURATION: LIFETIME), Tumor Site: Type of Lesion: ZYMBAL GLAND: CARCINOMA, ORAL CAVITY: CARCINOMA, NASAL CAVITY: CARCINOMA, Tumor Site: Type of Lesion: ZYMBAL GLAND: CARCINOMA, ORAL CAVITY: CARCINOMA, NASAL CAVITY: CARCINOMA): active; positive | carcinogen call (Species: RAT, Strain/Sex: WISTAR/MALE, Route: INTRAGASTRIC, 500 MG/KG BW IN OLIVE OIL 1/D 4-5 D/WK FOR 104 WK (STUDY DURATION: LIFESPAN), Tumor Site: Type of Lesion: ZYMBAL GLAND: CARCINOMA): active; positive
